From patent US11382328B2, “Rapid drug discovery methods for pathogen inactivation” (priority 2019, dated 2022)

System: E. coli strain W3110
Assay: Synergy assays: Biolog chemical sensitivity panels with Group IB metal, coefficient of drug interaction (CDI) from relative growth
Format: cell-based
Details: for CDI (coefficient of drug interaction), silver + biocide: 4th of four biocide concentrations; for CDI (coefficient of drug interaction), silver + biocide / CDI (coefficient of drug interaction): E. coli; for CDI (coefficient of drug interaction): Copper (mM); for CDI (coefficient of drug interaction), gold + biocide: Gold (μM)

Molecule: Cc1ccc2c(Cl)cc(Cl)c(O)c2n1 [5,7-dichloro-8-hydroxyquinaldine]
- CDI (coefficient of drug interaction), silver + biocide (Silver 0.5 μM): Tox
- CDI (coefficient of drug interaction), silver + biocide (Silver 1.0 μM): Tox
- CDI (coefficient of drug interaction), silver + biocide (Silver 5.0 μM): Tox

Molecule: penimepicycline
- CDI (coefficient of drug interaction) (1st of 3 copper concentrations (head line not shown), biocide concentration 1 of 4): 0.91
- CDI (coefficient of drug interaction) (1st of 3 copper concentrations (head line not shown), biocide concentration 2 of 4): 1.07
- CDI (coefficient of drug interaction) (1st of 3 copper concentrations (head line not shown), biocide concentration 3 of 4): Tox
- CDI (coefficient of drug interaction) (1st of 3 copper concentrations (head line not shown), biocide concentration 4 of 4): Tox
- CDI (coefficient of drug interaction) (2nd of 3 copper concentrations (head line not shown), biocide concentration 1 of 4): 0.70
- CDI (coefficient of drug interaction) (2nd of 3 copper concentrations (head line not shown), biocide concentration 2 of 4): 0.87
- CDI (coefficient of drug interaction) (2nd of 3 copper concentrations (head line not shown), biocide concentration 3 of 4): Tox
- CDI (coefficient of drug interaction) (2nd of 3 copper concentrations (head line not shown), biocide concentration 4 of 4): Tox
- CDI (coefficient of drug interaction) (3rd of 3 copper concentrations (head line not shown), biocide concentration 1 of 4): 0.51
- CDI (coefficient of drug interaction) (3rd of 3 copper concentrations (head line not shown), biocide concentration 2 of 4): 0.64
- CDI (coefficient of drug interaction) (3rd of 3 copper concentrations (head line not shown), biocide concentration 3 of 4): Tox
- CDI (coefficient of drug interaction) (3rd of 3 copper concentrations (head line not shown), biocide concentration 4 of 4): Tox
- CDI (coefficient of drug interaction), gold + biocide (first of 3 gold concentrations, biocide concentration 1 of 4): 1.07
- CDI (coefficient of drug interaction), gold + biocide (first of 3 gold concentrations, biocide concentration 2 of 4): 1.12
- CDI (coefficient of drug interaction), gold + biocide (first of 3 gold concentrations, biocide concentration 3 of 4): Tox
- CDI (coefficient of drug interaction), gold + biocide (first of 3 gold concentrations, biocide concentration 4 of 4): Tox
- CDI (coefficient of drug interaction), gold + biocide (second of 3 gold concentrations, biocide concentration 3 of 4): Tox
- CDI (coefficient of drug interaction), gold + biocide (second of 3 gold concentrations, biocide concentration 4 of 4): Tox
- CDI (coefficient of drug interaction), gold + biocide (third of 3 gold concentrations, biocide concentration 1 of 4): 0.90
- CDI (coefficient of drug interaction), gold + biocide (third of 3 gold concentrations, biocide concentration 2 of 4): 0.80
- CDI (coefficient of drug interaction), gold + biocide (third of 3 gold concentrations, biocide concentration 3 of 4): Tox
- CDI (coefficient of drug interaction), gold + biocide (third of 3 gold concentrations, biocide concentration 4 of 4): Tox
- CDI (Silver 0.5 μM, biocide concentration 2 of 4): 1.10
- CDI (Silver 0.5 μM, biocide concentration 3 of 4): Tox
- CDI (Silver 0.5 μM, biocide concentration 4 of 4): Tox
- CDI (Silver 1.0 μM, biocide concentration 1 of 4): 0.91
- CDI (Silver 1.0 μM, biocide concentration 2 of 4): 0.91
- CDI (Silver 1.0 μM, biocide concentration 3 of 4): Tox
- CDI (Silver 1.0 μM, biocide concentration 4 of 4): Tox
- CDI (Silver 5.0 μM, biocide concentration 1 of 4): 0.49
- CDI (Silver 5.0 μM, biocide concentration 2 of 4): 0.34
- CDI (Silver 5.0 μM, biocide concentration 3 of 4): Tox
- CDI (Silver 5.0 μM, biocide concentration 4 of 4): Tox
